This is an account of results in US5422249A, “Process for the manufacture of thrombin inhibitors” (Ciba-Geigy Corporation, priority 1984, dated 1995).

A short description of series [1]: toxicity in rats. The format is in vivo. The note with it: dose 1 g/kg.
Series [2] is described as follows: tolerability (hypersensitivity, allergic reactions, harmlessness). The note with it: in vivo.
Series [3] has as its system thrombin from human plasma. Briefly: thrombin-inhibition test with Chromozym TH. The format is biochemical. The settings on record: for Thrombin inhibition (%): Experimental conditions No. 1, Table 1. The procedure: The cells (50 ml of the growing culture) are harvested and resuspended in 5 ml of a solution of 50 mM tris.HCl (pH 8.0) and 30 mM NaCl. Subsequently, the suspension is shaken with 5 g of cooled glass beads (diameter 0.5 mm), or by the addition of lysozyme (Boehringer), final concentration 1 mg/ml, at intervals during 30 to 45 minutes on a Multi-Tube Vortexer at high intensity. 0.5 ml of 2% acetic acid are added to 0.5 ml of the mixture which is then centrifuged at 12,000 revs/min for 20 minutes at 4° C. The supernatant solution is examined for hirudin activity (inhibition of thrombin). The thrombin-inhibition test is carried out as follows:
The test is based on the determination of the enzymatic removal of p-nitroaniline from the substrate Chromozym TH (tosyl-glycyl-prolyl-arginine-4-nitroanilide-acetate). […] The reaction time is 2 hours at 37° C. in the incubation chamber. For the test, 20 μl of the solution to be determined is diluted with 30 μl of filling buffer (0.2M tris.HCl pH 7.5, 1M NaCl, 100 μg/ml bovine serum albumin), and 20 μl of enzyme solution [10 mg of lyophilised thrombin from human plasma (Boehringer) dissolved in 1 ml of bidistilled water and diluted approximately 1:400 with the above filling buffer] and 150 μof substrate solution [[…] chromozym TH (Boehringer) dissolved in 4 ml of bidistilled water and diluted 1:15 with the above filling buffer] are added. All solutions are measured against a blank solution consisting of 70 μl of filling buffer (see above) and 150 μl of substrate solution and against an enzyme control solution consisting of 50 μl of filling buffer, 20 μl of enzyme solution and 150 μl of substrate solution. […] The thrombin inhibition (as a %) of the samples is calculated in accordance with the following formula: [formula]

Series [4] deals with other enzymes of the blood coagulation cascade. Description: action on other enzymes/proteinases of the blood coagulation system. Type of series: biochemical. The note with it: desulphatohirudin.
For series [5] the test system is unchanged. The settings on record: natural hirudin; cited from earlier work.
For series [6] the following is noted: intravenously to dogs, even in high doses; cited from earlier work.
Series [7] deals with experimental thrombosis (induced either by stasis or by the injection of thrombin), endotoxin shock, DIC. The note with it: cited from earlier work.

As to desulphatohirudin, the active toxicity result in series [1] is listed as “no toxic effects”. Further, in series [2], the “hypersensitivity reactions or allergic reactions” value was “no hypersensitivity reactions or allergic reactions”. This substance displayed a thrombin inhibition in series [3] (HPLC fraction from S. cerevisiae GRF18/pJDB207R/PH05-HIR, conditions as in Example 26a) of 89.6%. Also, the “Thrombin inhibition (%)” value turned out to be 86% in series [3] (RP-HPLC fractions) and 79% in series [3] (RP-HPLC fractions, listed as Fr 14). The substance further yielded a Thrombin-inhibition % in series [3] (RP-HPLC fractions, Experimental conditions No. 2, Table 2) of 97.3 ± 2%. The “specificity to thrombin / interactions with other proteinases of the blood coagulation system” value in series [4] was “completely specific to thrombin”.
hirudin: the “inhibition of other enzymes of the blood coagulation cascade” value in series [5] is on record as “not inhibited”. The “effect on heart rate, respiration, blood pressure, thrombocyte count, fibrinogen and haemoglobin” value in series [6] is given as “No effect”. In addition, in series [7] (in vivo), the “direct comparison tests with heparin” value is given as “superior to heparin”. The “efficacy in experimental thrombosis, endotoxin shock and DIC” value in series [7] (rats, pigs and dogs) was “effective”.
